In patent US20260285850A1, “SUBSTITUTED OXAZOLIDINONES AND IMIDAZOLINONES AS HERBICIDES” (FMC CORPORATION, priority 2023, published 2026):

How the values were obtained:
Format in all cases: in vivo
kochia (Bassia scoparia) [1] = assay: Test A preemergence soil spray, visual injury rating 0-100; conditions: 10 days
Procedure, shortened: (§1)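 Seeds sown in loam-sand blend got a preemergence directed soil spray, or emerged plants (2-10 cm, one- to two-leaf) got a postemergence spray, of compound in non-phytotoxic solvent with surfactant. After 10 days in greenhouse, injury rated visually versus untreated controls on a 0 (no effect) to 100 (complete control) scale.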

corn (Zea mays) [2] = assay: as above; conditions: 10 days
Procedure, shortened: as §1

[3] = tested on: wheat (Triticum aestivum); assay: as above; conditions: 10 days
Procedure, shortened: as §1

[4] = tested on: ryegrass, Italian (italian ryegrass, Lolium multiflorum); assay: as above; conditions: 10 days
Procedure, shortened: as §1

soybean (Glycine max) [5] = assay: as above; conditions: 10 days
Procedure, shortened: as §1

[6] = tested on: blackgrass (Alopecurus myosuroides); assay: as above; conditions: 10 days
Procedure, shortened: as §1

[7] = tested on: ragweed (common ragweed, Ambrosia artemisiifolia); assay: as above; conditions: 10 days
Procedure, shortened: as §1

[8] = tested on: green foxtail (Setaria viridis); assay: as above; conditions: 10 days
Procedure, shortened: as §1

[9] = tested on: palmer (palmer amaranth, palmer pigweed, Amaranthus palmeri); assay: as above; conditions: 10 days
Procedure, shortened: as §1

[10] = tested on: oat, wild (wild oat, Avena fatua); assay: as above; conditions: 10 days
Procedure, shortened: as §1

[11] = tested on: barnyardgrass (Echinochloa crus-galli); assay: as above; conditions: 10 days
Procedure, shortened: as §1

[12] = tested on: ducksalad (Heteranthera limosa); assay: Test B flooded paddy test, visual plant response rating 0-100; conditions: 250 g ai/ha, Flood, applied to paddy water, evaluated after 13 days
Procedure, shortened: (§2)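 Visual evaluation after 13 days. Water-applied treatment, 3 cm flood depth held constant, plants at 2-leaf stage at treatment.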

[13] = tested on: sedge, umbrella (small-flower umbrella sedge, Cyperus difformis); assay: as above; conditions: 250 g ai/ha, Flood, applied to paddy water, evaluated after 13 days
Procedure, shortened: as §2

rice (Oryza sativa) = assay: as above; conditions: 250 g ai/ha, Flood, applied to paddy water, evaluated after 13 days
Procedure, shortened: as §2

[14] = tested on: barnyardgrass (Echinochloa crusgalli); assay: as above; conditions: 250 g ai/ha, Flood, applied to paddy water, evaluated after 13 days
Procedure, shortened: as §2

[15] = tested on: galium (catchweed bedstraw, Galium aparine); assay: Test A postemergence application, visual injury rating 0-100
Procedure, shortened: as §1

kochia (Bassia scoparia) [16] = assay: as above
Procedure, shortened: as §1

corn (Zea mays) [17] = assay: as above
Procedure, shortened: as §1

[18] = tested on: wheat (Triticum aestivum); assay: as above
Procedure, shortened: as §1

[19] = tested on: ryegrass, Italian (italian ryegrass, Lolium multiflorum); assay: as above
Procedure, shortened: as §1

soybean (Glycine max) [20] = assay: as above
Procedure, shortened: as §1

[21] = tested on: blackgrass (Alopecurus myosuroides); assay: as above
Procedure, shortened: as §1

[22] = tested on: ragweed (common ragweed, Ambrosia artemisiifolia); assay: as above
Procedure, shortened: as §1

[23] = tested on: green foxtail (Setaria viridis); assay: as above
Procedure, shortened: as §1

[24] = tested on: palmer (palmer amaranth, palmer pigweed, Amaranthus palmeri); assay: as above
Procedure, shortened: as §1

[25] = tested on: oat, wild (wild oat, Avena fatua); assay: as above
Procedure, shortened: as §1

[26] = tested on: horseweed (Erigeron canadensis); assay: as above
Procedure, shortened: as §1

[27] = tested on: barnyardgrass (Echinochloa crus-galli); assay: as above
Procedure, shortened: as §1

[28] = 62 g ai/ha, 0 = no effect, 100 = complete control
[29] = 62 g ai/ha, postemergence, 10 days, 0 = no effect, 100 = complete control
[30] = Postemergence, 16 g ai/ha, greenhouse 10 days, 0 no effect, 100 complete control

CC1(C(=O)NC2CC(C(=O)O)C2)CN(c2cc(F)cc(F)c2)C(=O)O1 (stereo not shown) [Compound 119]
Kochia plant response rating (kochia (Bassia scoparia) [1]; 16 g ai/ha, 0 to 100 scale): 0 | Kochia plant response rating (0-100) (kochia (Bassia scoparia) [1]; [28]): 80 | Corn plant response rating (corn (Zea mays) [2]; 16 g ai/ha, 0 to 100 scale): 20 | Corn plant response rating (0-100) (corn (Zea mays) [2]; [28]): 70 | Wheat plant response rating ([3]; 16 g ai/ha, 0 to 100 scale): 10 | Wheat plant response rating (0-100) [3, 28]: 60 | Ryegrass, Italian plant response rating ([4]; 16 g ai/ha, 0 to 100 scale): 30 | Ryegrass, Italian plant response rating (0-100) [4, 28]: 80 | Soybean plant response rating (soybean (Glycine max) [5]; 16 g ai/ha, 0 to 100 scale): 0 | Soybean plant response rating (0-100) (soybean (Glycine max) [5]; [28]): 20 | Blackgrass plant response rating ([6]; 16 g ai/ha, 0 to 100 scale): 40 | Blackgrass plant response rating (0-100) [6, 28]: 80 | Ragweed plant response rating ([7]; 16 g ai/ha, 0 to 100 scale): 0 | Ragweed plant response rating (0-100) [7, 28]: 0 | Foxtail, Green plant response rating ([8]; 16 g ai/ha, 0 to 100 scale): 20 | Foxtail, Green plant response rating (0-100) [8, 28]: 90 | Pigweed, Palmer plant response rating ([9]; 16 g ai/ha, 0 to 100 scale): 10 | Pigweed, Palmer plant response rating (0-100) [9, 28]: 10 | Oat, Wild plant response rating ([10]; 16 g ai/ha, 0 to 100 scale): 90 | Oat, Wild plant response rating (0-100) [10, 28]: 90 | Barnyardgrass plant response rating ([11]; 16 g ai/ha, 0 to 100 scale): 0 | Barnyardgrass plant response rating (0-100) [11, 28]: 80 | Plant response rating, Ducksalad (0 to 100 scale, 0 is no effect and 100 is complete control) [12]: 0 | Plant response rating, Sedge, Umbrella (0 to 100 scale, 0 is no effect and 100 is complete control) [13]: 0 | Plant response rating, Rice (0 to 100 scale, 0 is no effect and 100 is complete control) (rice (Oryza sativa)): 0 | Plant response rating, Barnyardgrass (0 to 100 scale, 0 is no effect and 100 is complete control) [14]: 0 | Galium plant response rating (0-100) [15, 29]: 60 | Galium plant response rating (0 to 100 scale) [15, 30]: 20 | Kochia plant response rating (0-100) (kochia (Bassia scoparia) [16]; [29]): 80 | Kochia plant response rating (0 to 100 scale) (kochia (Bassia scoparia) [16]; [30]): 10 | Corn plant response rating (0-100) (corn (Zea mays) [17]; [29]): 100 | Corn plant response rating (0 to 100 scale) (corn (Zea mays) [17]; [30]): 100 | Wheat plant response rating (0-100) [18, 29]: 90 | Wheat plant response rating (0 to 100 scale) [18, 30]: 80 | Ryegrass, Italian plant response rating (0-100) [19, 29]: 60 | Ryegrass, Italian plant response rating (0 to 100 scale) [19, 30]: 0 | Soybean plant response rating (0-100) (soybean (Glycine max) [20]; [29]): 80 | Soybean plant response rating (0 to 100 scale) (soybean (Glycine max) [20]; [30]): 50 | Blackgrass plant response rating (0-100) [21, 29]: 100 | Blackgrass plant response rating (0 to 100 scale) [21, 30]: 80 | Ragweed plant response rating (0-100) [22, 29]: 20 | Ragweed plant response rating (0 to 100 scale) [22, 30]: 0 | Foxtail, Green plant response rating (0-100) [23, 29]: 90 | Foxtail, Green plant response rating (0 to 100 scale) [23, 30]: 70 | Pigweed, Palmer plant response rating (0-100) [24, 29]: 50 | Pigweed, Palmer plant response rating (0 to 100 scale) [24, 30]: 20 | Oat, Wild plant response rating (0-100) [25, 29]: 90 | Oat, Wild plant response rating (0 to 100 scale) [25, 30]: 40 | Horseweed plant response rating (0-100) [26, 29]: 0 | Horseweed plant response rating (0 to 100 scale) [26, 30]: 0 | Barnyardgrass plant response rating (0-100) [27, 29]: 100 | Barnyardgrass plant response rating (0 to 100 scale) [27, 30]: 70
